Test results as given in PMC11054303, “Design and Synthesis of Novel N-Benzylidene Derivatives of 3-Amino-4-imino-3,5-dihydro-4H-chromeno[2,3-d]pyrimidine under Microwave, In Silico ADME Predictions, In Vitro Antitumoral Activities and In Vivo Toxicity” (Pharmaceuticals, 2024).

What was measured:
Huh7 D12 = assay: Antiproliferative assay, Huh7 D12; type: cell-based, human; details: for IC50: Homo sapiens, Huh-7D12, 48 h incubation, average of three assays, standard error ± 0.5 μM
Experimental: (§1) The potential antiproliferative activity of these novel 3-(N-phenylmethyliden)amino-4-imino-3,5-dihydro-4H-chromeno[2,3-d]pyrimidine 10(a-i) and 10-(N-phenylmethyliden)amino-11-imino-11H-naphto[1′,2′:5,6]pyrano[2,3-d]pyrimidine 10(j-l) was evaluated in a panel of eight tumoral cell lines and in diploid skin fibroblasts used as normal cell lines for control. For these antitumor assays, chosen cell lines represent diverse types of human cancer, which are, respectively, human hepatocellular carcinoma (Huh7 D12), human colon adenocarcinoma (Caco2), human breast adenocarcinoma (MDA-MB231), MDA-MB468 for human breast carcinoma which correspond to the Triple Negative Breast Cancer (TNBC), human colon carcinoma (HCT116), PC3 as cell line initiated from bone metastasis of grade IV prostatic adenocarcinoma from a person, MCF7 as breast cancer line isolated from a person and PANC1, as human pancreatic cancer cell line. The potential antiproliferative activity was preliminarily evaluated in vitro at a 25 μM single dose.
(§2) The IC50 was calculated from the full dose-response curve and used as a parameter for the antiproliferative activity of the new compounds.
(§3) Skin diploid fibroblastic cells were provided by BIOPREDIC International Company (Rennes, France). Huh-7D12 (Ref ECACC: 01042712), Caco2 (Ref ECACC: 86010202), MDA-MB-231 (Ref ECACC: 92020424), MDA-MB-468, HCT-116 (Ref ECACC: 91091005), PC3 (Ref ECACC: 90112714), and MCF7 cell lines were obtained from the ECACC collection. PANC1 cell lines, a generous gift of LBAI Inserm 1227 (Brest, France). Cells were grown according to ECACC recommendations in DMEM for Huh-D12, MDA-MB-231, MDA-MB-468 and fibroblast, in EMEM for Caco2, in McCoy’s for HCT-116 and RPMI for PC3 at 37 °C and 5% CO2. All culture media with 10% of FBS, 1% of penicillin-streptomycin and 2 mM glutamine.
(§4) Chemicals were solubilized in DMSO at a concentration of 10 mM (stock solution) and diluted in a culture medium to the desired final concentrations. […] The toxicity test of the chemicals on these cells was as follows: 2 × 10^3 cells for HCT-116 cells or 4 × 10^3 for the other cells were seeded in 96-multi-well plates in triplicate and left for 24 h for attachment, spreading and growing. Then, cells were exposed for 48 h to increasing concentrations of chemicals, ranging from 0.1 μM to 25 μM, in a final volume of 120 μL of culture medium. After 48 h of treatment, cells were washed in PBS and fixed in a cooled 90% ethanol/5% acetic acid solution for 20 min. The nuclei were stained with Hoechst 3342 (B2261 Merck Sigma-Aldrich) and counted. Image acquisition and analysis were performed using automated imaging analysis with a Cellomics Arrayscan VTI/HCS Reader (Thermo/Scientific, Waltham, MA, USA). The survival percentages were calculated as the percentage of cell number after chemical treatment over cell number after DMSO treatment. The IC50 was graphically determined.

[1] = Antiproliferative assay, Caco2; type: cell-based, human; details: human, Caco-2; SI = IC50 fibroblasts/IC50 on Caco2; read-out: Selectivity Index (SI) Caco2
Experimental: as §1, §2, §3, §4

Caco2 = assay: Antiproliferative assay, Caco2; type: cell-based, human; details: Homo sapiens, Caco-2; 48 h incubation; average of three assays, standard error ± 0.5 μM
Experimental: as §1, §2, §3, §4

MDA MB231 = assay: Antiproliferative assay, MDA MB231; type: cell-based, human; details: for IC50: Homo sapiens, MDA-MB-231, 48 h incubation, average of three assays, standard error ± 0.5 μM
Experimental: as §1, §2, §3, §4

MDA MB468 = assay: Antiproliferative assay, MDA MB468; type: cell-based, human; details: for IC50: Homo sapiens, MDA-MB-468, 48 h incubation, average of three assays, standard error ± 0.5 μM
Experimental: as §1, §2, §3, §4

HCT 116 = assay: Antiproliferative assay, HCT 116; type: cell-based, human; details: for IC50: Homo sapiens, HCT-116, 48 h incubation, average of three assays, standard error ± 0.5 μM; for Selectivity Index (SI) HCT 116: SI = IC50 fibroblasts/IC50 on HCT 116
Experimental: as §1, §2, §3, §4

PC3 = assay: Antiproliferative assay, PC3; type: cell-based, human; details: for IC50: Homo sapiens, PC-3, 48 h incubation, average of three assays, standard error ± 0.5 μM
Experimental: as §1, §2, §3, §4

MCF7 = assay: Antiproliferative assay, MCF7; type: cell-based, human; details: for IC50: Homo sapiens, MCF7, 48 h incubation, average of three assays, standard error ± 0.5 μM
Experimental: as §1, §2, §3, §4

Fibroblasts = assay: Antiproliferative assay, diploid skin fibroblasts (normal cells); type: cell-based; details: Fibroblast; 48 h incubation; average of three assays, standard error ± 0.5 μM
Experimental: as §1, §2, §3, §4

T47D breast cancer cells = system: T47D breast cancer cells; parameters: method as in PMID 15542776; details: cited from earlier work
PANC1 = assay: Antiproliferative assay, PANC1; type: cell-based, human; details: Homo sapiens, PANC-1; 48 h incubation; average of three assays, standard error ± 0.5 μM
Experimental: as §1, §2, §3, §4

tumor cell lines = assay: Antiproliferative assay, panel of tumoral cell lines; type: cell-based; details: Homo sapiens, 48 h, summary over tumoral cell lines of Table 3, 48 h; read-out: IC50 on tumor cell lines (span over the panel)
Experimental: as §1, §2, §3, §4

[2] = system: zebrafish Danio rerio embryos; assay: Angiogenesis of vessels in mCherry transgenic zebrafish embryos; type: in vivo; details: 1.67 μM, 72 hpf
From the text: Another interest of zebrafish Danio rerio is the possibility to deeply evaluate the effects of angiogenic compounds. In our model, the formation of most vessels is complete, the circulation is present, and the heart is beating after 28 hpf of development. Angiogenesis begins in the somites and in the anterior portion of the embryos. Many zebrafish blood vessels form by angiogenic sprouting and appear to require the same proteins required for blood vessel growth in mammals. By using the mCherry line transgenic zebrafish, it is possible to analyze the direct effect of a compound on the angiogenesis of dorsal vessels. Zebrafish embryos can survive up to a week without an intact circulatory system because defective vessel formation has no immediate lethal effect.
These experiments were performed in four technical replicates.

[3] = system: zebrafish Danio rerio embryos; details: transgenic line Tg(kdrl:Hsa.HRAS-mCherry)s896, zebrafish (Danio rerio), in vivo, 72 hpf, 1.67 μM
Experimental: (§5) Fertilized eggs at 24–48 h post-fertilization (hpf) were selected and transferred to a 96-well plate (1 embryo/well). […] DMSO (0.6%) was used as vehicle control for the test compounds. The exposure duration continued up to 72 hpf because it is the endpoint of embryonic development [41]. The dead embryos were eliminated, and the fertilized eggs were imaged at 0, 24, 48 and 72 hpf.
(§6) Eggs were collected 2 h post-fertilization (hpf) and kept in glass Petri dishes containing water for subsequent examination under a binocular microscope to confirm fertilization. […] Chemical treatments were performed by adding DMSO alone (negative control), or test molecule. These experiments were performed in four technical replicates.
(§7) The experiments were performed using a Zeiss inverted fluorescent microscope (Observer Z1). The zebrafish toxicological test (Zebratox) was realized as follows: the 24 h post-fertilization embryos were arrayed by hand with one embryo per well in black-walled 96-well microplates for fluorescence assays (Perkin Elmer, Waltham, MA, USA). The embryos were treated before hatching from 0 to 72 h post-fertilization. The 20 mM DMSO stock chemicals were diluted in fish water and added to the wells at final concentrations from 0.0 2µM to 5 μM. The negative control (0.25% DMSO) was added to each replicate plate. The experiments were realized in triplicate in three independent plates. […] The zebrafish fertilized eggs were provided by the ImPACcell-Biosit Zebrafish facilities (Rennes, France).

[4] = system: zebrafish Danio rerio embryos; assay: Zebrafish embryo toxicity assay (Zebratox, FET); details: low doses
Experimental: as §5, §6, §7

Row | IC50 (Huh7 D12) | IC50 (Caco2) | IC50 (HCT 116) | IC50 (PC3) | IC50 (MCF7) | melting point | IC50 (tumor cell lines) | Compound | IC50 (MDA MB231) | IC50 (MDA MB468) | Selectivity Index (SI) HCT 116 (HCT 116) | IC50 (Fibroblasts) | also measured
1 | 0.49 µM | 0.8 µM | 0.62 µM | 0.77 µM | 0.45 µM | 252 to 254 °C | – | COc1cccc2c1Oc1ncn(/N=C/c3ccccc3)c(=N)c1C2 [10i, (3E) 3-N-(Phenylmethylidene)amino-4-imino-9-methoxy-3,5-dihydro-4H-chromeno[2,3-d]pyrimidine] | 0.6 µM | 0.3 µM | > 40.3 | > 25 µM | Selectivity Index (SI) Huh7 D12 (Huh7 D12; SI = IC50 fibroblasts/IC50 on Huh7 D12): > 51.0; selectivity ratio at 48 h [1]: > 31.3; Selectivity Index (SI) MDA MB231 (MDA MB231; SI = IC50 fibroblasts/IC50 on MDA MB231): > 41.7; Selectivity Index (SI) MDA MB468 (MDA MB468; SI = IC50 fibroblasts/IC50 on MDA MB468): > 83.3; Selectivity Index (SI) PC3 (PC3; SI = IC50 fibroblasts/IC50 on PC3): > 32.5; Selectivity Index (SI) MCF7 (MCF7; SI = IC50 fibroblasts/IC50 on MCF7): > 55.6
2 | – | – | – | – | – | – | – | 2-amino-4-(3-bromo-4,5-dimethoxyphenyl)-4H-chromene-3-carbonitrile [MX 58151] | – | – | – | – | GI50 (T47D breast cancer cells): 0.037 µM
3 | > 25 µM | > 25 µM | 10 µM | > 25 µM | > 25 µM | 232 to 234 °C | > 25 µM | N=c1c2c(ncn1/N=C/c1ccccc1)Oc1ccccc1C2 [10f, (3E) 3-N-(Phenylmethylidene)amino-4-imino-3,5-dihydro-4H-chromeno[2,3-d]pyrimidine] | > 25 µM | > 25 µM | > 2.5 | > 25 µM | IC50 (PANC1): > 25 µM
4 | > 25 µM | > 25 µM | > 25 µM | > 25 µM | > 25 µM | ≥ 260 °C | > 25 µM | N=c1c2c(ncn1/N=C/c1ccccc1)Oc1ccc3ccccc3c1C2 [10l, (10E) 10-N-(Phenylmethylidene)amino-11-imino-11H-naphto[1′,2′:5,6]pyrano[2,3-d]pyrimidine] | > 25 µM | > 25 µM | – | > 25 µM | –
5 | – | – | – | – | – | – | – | CNC(=O)c1cc(Oc2ccc(NC(=O)Nc3ccc(Cl)c(C(F)(F)F)c3)cc2)ccn1 [sorafenib, reference compound] | – | – | – | – | effect on angiogenesis of the vessels [2]: absence of angiogenesis of the vessels; effect on angiogenesis of the vessels ([2]; listed as Sorafenib): inhibition of the dorsal vessel vascularization; toxicity, fraction of the embryos [3]: 4/5; development of the embryos ([4]; 24 hpf): normal development; morphological development of the embryos ([4]; 48 hpf): morphological development is delayed
